In publication PMC5615911 (Toxicology Reports, 2016):
Like-named read-outs stand apart in the source and are kept apart here.

Columns and labels:
[1] = In vitro metabolism, rat liver microsomes; type: in vitro ADME, Sprague-Dawley rat; settings: 60 min, with NADPH, positive control
[2] = In vitro metabolism, human liver microsomes; type: in vitro ADME; settings: 60 min, with NADPH, positive control
[3] = diet, 92 or 93 days; cited from earlier work
[4] = test system: CHO-WBL cells; settings: ±metabolic activation, up to 5000 μg/mL; cited from earlier work
[5] = test system: femoral bone marrow polychromatic erythrocytes; settings: ip, cited from earlier work
[6] = test system: TA1535; settings: plate incorporation, absence of metabolic activation; cited from earlier work
[7] = test system: TA100; settings: pre-incubation, presence of metabolic activation; cited from earlier work
[8] = male, cited from earlier work
[9] = test system: S. typhimurium strains TA98, TA100, TA1535, TA1537; settings: up to 5000 μg/plate; cited from earlier work
[10] = target: T1, CYP3A4 (Homo sapiens, UniProt P08684); settings: ref Senomyx, unpublished results; cited from earlier work
[11] = ref Chi, unpublished results, cited from earlier work
[12] = target: T1, CYP3A4; settings: ref Senomyx, unpublished results; cited from earlier work; remark: listed apart in the source
[13] = 28 days oral gavage, highest dose evaluated; ref Senomyx, unpublished results; cited from earlier work
[14] = test system: GPCRs, ion channels, nuclear receptors, transporters; settings: 10 μM; ref Senomyx, unpublished results; cited from earlier work
[15] = female, oral gavage 10 mg/kg bw
[16] = female, oral gavage 30 mg/kg bw
[17] = female, oral gavage 100 mg/kg bw

T1 sequence (P08684 whole entry): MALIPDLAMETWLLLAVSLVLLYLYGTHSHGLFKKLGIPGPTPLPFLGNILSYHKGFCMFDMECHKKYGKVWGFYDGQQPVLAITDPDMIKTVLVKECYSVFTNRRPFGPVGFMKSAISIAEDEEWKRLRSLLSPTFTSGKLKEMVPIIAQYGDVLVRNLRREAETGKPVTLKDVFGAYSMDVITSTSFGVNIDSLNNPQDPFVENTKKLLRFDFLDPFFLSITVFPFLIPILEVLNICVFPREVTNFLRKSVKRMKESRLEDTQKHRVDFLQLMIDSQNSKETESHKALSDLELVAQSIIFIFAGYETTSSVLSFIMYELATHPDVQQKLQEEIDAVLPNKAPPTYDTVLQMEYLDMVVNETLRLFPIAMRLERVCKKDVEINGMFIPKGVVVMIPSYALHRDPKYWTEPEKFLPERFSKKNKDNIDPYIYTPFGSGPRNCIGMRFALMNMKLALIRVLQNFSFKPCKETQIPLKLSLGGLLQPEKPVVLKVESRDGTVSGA

C[C@]12CC[C@H]3[C@@H](CCC4=CC(=O)CC[C@@]43C)[C@@H]1CC[C@@H]2O [testosterone, reference compound]
Turnover [1]: greater than 85%
Turnover [2]: greater than 85%

COc1ccc(CNC(=O)C(=O)NCCc2ccccn2)c(OC)c1 [S336, N^1-(2,4-dimethoxybenzyl)-N^2-(2-(pyridin-2-yl)ethyl)oxalamide]
NOEL [3]: at least 100 mg/kg bw/day
Clastogenicity [4]: non-clastogenic
Micronucleated polychromatic erythrocytes vs negative control ([5]; up to 800 mg/kg bw, 24, 36, 48 h): no statistically significant differences
Maximum tolerated dose [5]: 800 mg/kg bw
Reverse mutation result [6]: weakly positive
Reverse mutation result [7]: weakly positive
AUC0-last ([8]; iv 0.1 mg/kg bw): 65.0 ± 1.3 ng·h/mL
Cmax ([8]; iv 0.1 mg/kg bw): 207 ± 25.8 ng/mL
Tmax ([8]; iv 0.1 mg/kg bw): 1.8 min
t1/2 ([8]; iv 0.1 mg/kg bw): 25.2 min
% F ([8]; oral gavage 10 mg/kg bw): 89.4%
AUC0-last ([8]; oral gavage 10 mg/kg bw): 5809 ± 444 ng·h/mL
Cmax ([8]; oral gavage 10 mg/kg bw): 7027 ± 925 ng/mL
Tmax ([8]; oral gavage 10 mg/kg bw): 15 min
t1/2 ([8]; oral gavage 10 mg/kg bw): 41.4 min
% F ([8]; oral gavage 30 mg/kg bw): 114.2%
AUC0-last ([8]; oral gavage 30 mg/kg bw): 22260 ± 727 ng·h/mL
Cmax ([8]; oral gavage 30 mg/kg bw): 23430 ± 1436 ng/mL
Tmax ([8]; oral gavage 30 mg/kg bw): 11.4 min
t1/2 ([8]; oral gavage 30 mg/kg bw): 42.6 min
% F ([8]; oral gavage 100 mg/kg bw): 134.6%
AUC0-last ([8]; oral gavage 100 mg/kg bw): 87490 ± 13350 ng·h/mL
Cmax ([8]; oral gavage 100 mg/kg bw): 36270 ± 6004 ng/mL
Tmax ([8]; oral gavage 100 mg/kg bw): 15 min
t1/2 ([8]; oral gavage 100 mg/kg bw): 58.8 min
Fold increase in AUClast for 10-fold increase in oral dose [8]: 15.1 fold
Mutagenicity, conclusion [9]: non-mutagenic

COc1cccc(CNC(=O)C(=O)NCCc2ccccn2)c1OC [S5456, N^1-(2,3-dimethoxybenzyl)-N^2-(2-(pyridin-2-yl)ethyl)oxalamide]
% inhibition at 10 μM [10]: 51%
AUC0-last ([11]; female, iv 1.0 mg/kg bw): 817 ± 186 ng·h/mL
Cmax ([11]; female, iv 1.0 mg/kg bw): 2398 ± 391 ng/mL
Tmax ([11]; female, iv 1.0 mg/kg bw): 1.8 min
t1/2 ([11]; female, iv 1.0 mg/kg bw): 19.2 min
% F [11, 15]: 51.4%
AUC0-last [11, 15]: 4201 ± 1013 ng·h/mL
Cmax [11, 15]: 3258 ± 1087 ng/mL
Tmax [11, 15]: 15 min
t1/2 [11, 15]: 72 min
% F [11, 16]: 108.6%
AUC0-last [11, 16]: 26610 ± 7306 ng·h/mL
Cmax [11, 16]: 10980 ± 1500 ng/mL
Tmax [11, 16]: 19.8 min
t1/2 [11, 16]: 95.4 min
% F [11, 17]: 250.2%
AUC0-last [11, 17]: 204400 ± 44540 ng·h/mL
Cmax [11, 17]: 34670 ± 4196 ng/mL
Tmax [11, 17]: 55.2 min
t1/2 [11, 17]: 175 min
Fold increase in AUClast for 10-fold increase in oral dose ([11]; female): 48.7 fold
AUC0-last ([11]; male, iv 1.0 mg/kg bw): 757 ± 112 ng·h/mL
Cmax ([11]; male, iv 1.0 mg/kg bw): 2633 ± 363 ng/mL
Tmax ([11]; male, iv 1.0 mg/kg bw): 1.8 min
t1/2 ([11]; male, iv 1.0 mg/kg bw): 19.2 min
% F ([11]; male, oral gavage 10 mg/kg bw): 39.6%
AUC0-last ([11]; male, oral gavage 10 mg/kg bw): 3001 ± 498 ng·h/mL
Cmax ([11]; male, oral gavage 10 mg/kg bw): 3120 ± 787 ng/mL
Tmax ([11]; male, oral gavage 10 mg/kg bw): 15 min
t1/2 ([11]; male, oral gavage 10 mg/kg bw): 57 min
% F ([11]; male, oral gavage 30 mg/kg bw): 42.0%
AUC0-last ([11]; male, oral gavage 30 mg/kg bw): 9535 ± 4190 ng·h/mL
Cmax ([11]; male, oral gavage 30 mg/kg bw): 7643 ± 2404 ng/mL
Tmax ([11]; male, oral gavage 30 mg/kg bw): 18.6 min
t1/2 ([11]; male, oral gavage 30 mg/kg bw): 65.4 min
% F ([11]; male, oral gavage 100 mg/kg bw): 73.9%
AUC0-last ([11]; male, oral gavage 100 mg/kg bw): 55950 ± 19820 ng·h/mL
Cmax ([11]; male, oral gavage 100 mg/kg bw): 33070 ± 14550 ng/mL
Tmax ([11]; male, oral gavage 100 mg/kg bw): 15 min
t1/2 ([11]; male, oral gavage 100 mg/kg bw): 81 min
Fold increase in AUClast for 10-fold increase in oral dose ([11]; male): 18.6 fold
% inhibition at 10 μM, any CYP isozyme of the panel [12]: < 50%
NOEL [13]: 140 mg/kg bw/day
Significant off-target activities [14]: No other significant off-target activities
